Consider four molecules from US20110212108A1, “NEUREGULIN/ERBB SIGNALING AND INTEGRIN” (THE REGENTS OF THE UNIVERSITY OF CALIFORNIA, priority 2008, published 2011).

One experiment deals with HaCAT keratinocytes. Description: ERK1/2 activation in HaCAT keratinocytes, Western blotting. The class given is cell-based. As to conditions: serum-starved; background Erk1/2 level high. As to the method: FIG. 18. […] HaCAT keratinocytes were serum-starved and incubated with wt NRG1 (175-222) or 3KE (175-222). The levels of Erk1/2 activation were determined by Western blotting.
In general terms: In western blotting, separated proteins are transferred to a membrane and probed.

Experiment [1] concerns integrin β3 cytoplasmic domain. The experiment can be described thus: Tyr-phosphorylation of integrin β3 cytoplasmic domain in M21 cells, Western blotting. The class given is cell-based, human. The following applies: 10 ng/ml, serum-starved, 30 min. As to the method:
FIG. 13. Wt NRG1 (175-222) enhanced Tyr-phosphorylation of the integrin β3 cytoplasmic domain, while 3KE (175-222) suppressed it in M21 cells. Serum-starved M21 cells were stimulated with 10 ng/ml wt or 3KE NRG1 (175-222). Tyr-phosphorylation of β3 was determined by Western blotting of cell lysates.
It has recently been reported that Tyr phosphorylation of the β3 tail plays a role in VEGF and insulin-like growth factor-1 (IGF1) (Clemmons et al. 2007; Mahabeleshwar et al. 2007). It was tested if NRG1 signaling requires Tyr-phosphorylation of the β3 tail in M21 cells. As shown here, the β3 tail is constitutively Tyr-phosphorylated in serum-starved cells.

For experiment [2], the system named is Met-1 tumor (a highly metastatic mouse breast cancer). The experiment can be described thus: Met-1 tumor transplanted subcutaneously into nude mice. The experiment is classed as in vivo. As to conditions: 100 ng/mouse/day intraperitoneally, 5 days a week; P<0.0001. On the procedure:
FIG. 15. 3KE (175-222) mutant suppressed tumorigenesis in a xenograft experiment with highly metastatic Met-1 tumor. Met-1 tumor (a highly metastatic mouse breast cancer) (4×4×4 mm) was transplanted subcutaneously into nude mice. The 3KE (175-222) mutant or vehicle was intraperitoneally injected ([…] 5 days a week) to mice, starting day 0. Data are shown as means+/−SEM. P<0.0001 by 2-way ANOVA (n=2 for control and n=3 for 3KE).
It was tested whether intraperitoneal injection of 3KE (175-222) can affect tumor growth in vivo. The Met-1 line (a highly metastatic mouse mammary tumor) (Guy et al. 1992; Cheung et al. 1997) has the polyoma virus middle T (PyV-MT) transgene, and metastasize with 100% efficiency. Met-1 (4mm×4 mm×4 mm) was transplanted to nude mice and 3KE (175-222) (100 ng/mouse/day 5 days a week) was intraperitoneally injected.

In experiment [3] the test system is mammary intraepithelial neoplasia-outgrowth (MIN-O). The experiment can be described thus: Outgrowth of precancer (MIN-O) in FVB mice. The following applies: 200 ng/day/mouse intraperitoneally, 5 days a week for 4 weeks; P=0.0355. The class given is in vivo. As to the method:
FIG. 16. Inhibitory effect of daily intraperitoneal injection of 3KE (175-222) on the outgrowth of precancer (MIN-O) in FVB mice. MIN-O was transplanted into fat pads of FVB mice (two per mice) and 3KE (175-222) (200 ng/mouse/day) was injected 5 days a week for 4 weeks starting day 0. After 28 days, mice were sacrificed and the dimensions of tumors were measured. Since MIN-O grows as a thin layer, the two-dimensional size was calculated and the thickness was ignored. P=0.0355 by ANOVA between control and 3KE (175-222).
To study the effect of 3KE (175-222) on the premalignant cancer, transplantable mammary intraepithelial neoplasia-outgrowth (MIN-O) tissue lines, which were derived from hyperplastic mammary lesions in young Tg(MMTV-PyV-mT) females (Maglione et al. 2004), were used. The resulting lesions mimic the biological behavior, molecular biology, and histopathology of human ductal carcinoma in situ (Maglione et al. 2004). One mm^3 pieces of the 8w-BMINO tissues (Maglione et al. 2004) were transplanted to gland-cleared no. 4 mammary fat pads of 3-week-old FVB females bilaterally.

The subject of experiment [4] is mock-transfected K562 cells. Description: Cell adhesion assay, mock-transfected K562 cells. The class given is cell-based, human. On the procedure: FIG. 5. […] Adhesion assays was performed using αvβ3-K562 (left) or mock transfected cells (right) as described herein. The data is shown as means+/−SEM of triplicate experiments.
Cell adhesion and soluble integrin binding assays were performed as described previously (Mori, et al., 2008). NRG1α (175-241) was immobilized to wells of 96-well microtiter plate overnight at 4° C. in 0.1 M carbonate buffer, pH 2 9.4. Remaining protein binding sites were blocked by incubating with 200 μl of 0.1% BSA in PBS for 60 min at room temperature. Wells were then incubated with soluble integrin αvβ3 in 50 μl in Hepes-Tyrode's buffer supplemented with 1 mM Mn2+ at room temperature for 60 min. After rinsing the wells with the same buffer, bound integrins were determined by horseradish peroxidase (HRP)-conjugated anti-His tag mouse IgG and substrate 3,3′,5,5′-tetramethylbenzidine of HRP.

Experiment [5] concerns Met-1 mouse breast cancer. Description: Met-1 mouse breast cancer transplanted to fat pad of FVB syngeneic mice. The class given is in vivo. The following applies: 200 ng/mouse/day intraperitoneally from day 5. As to the method:
FIG. 23. Effect of the 3KE (175-241) mutation on in vivo tumorigenesis. Top: Growth curve. […] (P<0.0001 by two way ANOVA.) Bottom: Tumor size at day 18.
In the present invention, Met-1 mouse breast cancer fragment (2×2×2 mm) was transplanted to fat pad of FVB syngeneic mice (2 per animal, 5-6 mice per group) (day 0). At day 5, intraperitoneal injection of 200 ng/mouse/day wt NRG1, 3KE, heat-denatured 3KE or vehicle (PBS) everyday were started (FIG. 23). PBS contains 0.1 mg/ml mouse serum albumin as carrier. Tumor size was measured using caliper twice a week (FIG. 23). Tumor size was calculated using V=0.4×(a×b×b) where a is the longest diameter and b is a diameter perpendicular to a. Statistical analysis was performed using Prism software package.

Take “3KE (175-222): NRG1 (175-222) with Lys181/Lys185/Lys187 mutated to Glu; GTSHLVECAEEEETFCVNGGECFMVKDLSNPSRYLCKCQPGFTGARCT (SEQ ID NO:11) (integrin-binding site within human neuregulin, 3KE mutant, short version)”: the “ERK1/2 activation in HaCAT cells” value with HaCAT keratinocytes is recorded as “suppressed levels of ERK1/2 activation”. The “Tyr-phosphorylation of the integrin β3 tail in M21 cells” value in experiment [1] is on record as “suppressed it”. For the same molecule, the “Tumor growth of Met-1 in nude mice” value in experiment [2] is on record as “markedly suppressed tumor growth”. Besides, the “Outgrowth of MIN-O in FVB mice” value in experiment [3] is given as “effectively suppressed the outgrowth of MIN-O tumors”.

In the case of “wt NRG1 (175-222): wild type human neuregulin 1 fragment, EGF-like domain, residues 175-222 of SEQ ID NO:4 (SEQ ID NO:3) (GTSHLVKCAEKEKTFCVNGGECFMVKDLSNPSRYLCKCQPGFTGARCT; integrin-binding site within human neuregulin 1 EGF-like region and portion of alpha domain, residues 175-222 of human neuregulin 1 alpha) [reference compound]”, in experiment [4], the “Adhesion of mock-transfected K562 cells to the immobilized protein” value was “did not”. Also, in experiment [1], the “Tyr-phosphorylation of the integrin β3 tail in M21 cells” value is on record as “enhanced levels of Tyr-phosphorylation”.

B1: WT NRG1α (175-241): wild type human neuregulin 1 fragment, residues 175-241 of SEQ ID NO:4 (SEQ ID NO:5), entire EGF-like motif and α domain (protein)
chain: GTSHLVKCAEKEKTFCVNGGECFMVKDLSNPSRYLCKCQPGFTGARCTENVPMKVQNQEKAEELYQK
modifications: integrin-binding site within human neuregulin, residues 175-241of human neuregulin 1alpha, long version
On to B1, for which the “Adhesion of mock-transfected K562 cells to the immobilized protein” value in experiment [4] was “did not”.

B2: 3KE (175-241): NRG1α (175-241) with Lys181/Lys185/Lys187 mutated to Glu, SEQ ID NO:6 (3KE, long version) (protein)
chain: GTSHLVECAEEEETFCVNGGECFMVKDLSNPSRYLCKCQPGFTGARCTENVPMKVQNQEKAEELYQK
modifications: integrin-binding site within human neuregulin, residues 175-241of human neuregulin 1alpha, long version, 3KE mutant
For the molecule B2, the “Tumor growth curve of Met-1 in FVB mice” value in experiment [5] (P<0.0001 by two way ANOVA) is reported as “suppressed tumor growth”. For the same molecule, the “Tumor size at day 18, Met-1 in FVB mice” value in experiment [5] (t-test) is reported as “suppressed tumor growth”.
